Molecules are shown by their SMILES. Where only a bound is given, the exact number is not on record here.

For 27 molecules, IC50 results are on record in patent US20260042755A1, “GPR6 INVERSE AGONISTS” (MapLight Therapeutics, Inc., priority 2022, published 2026).

The target of one assay is T1, GPR6 (Homo sapiens, UniProt P46095).
T1 construct: expressed in transfected cells; host or cells: CHO cells
Kind of assay: GPR6 antagonist functional cAMP assay (LANCE Ultra cAMP TR-FRET, CHO cells stably expressing GPR6). The format is cell-based. To be noted: procedure as described in Example 24. The method in brief:
(§1)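 We measure cAMP by TR-FRET (665 nm) in cells held in glucose-containing Krebs-Ringer buffer with BSA and a PDE inhibitor, after a 45 min, 37 °C compound incubation. IC50s derive from a four-parameter logistic fit.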

The next assay deals with T2, GPR3 (Homo sapiens, UniProt P46089).
T2 construct: expressed in transfected cells; host or cells: CHO cells
T2 sequence (P46089 whole entry, species assumed): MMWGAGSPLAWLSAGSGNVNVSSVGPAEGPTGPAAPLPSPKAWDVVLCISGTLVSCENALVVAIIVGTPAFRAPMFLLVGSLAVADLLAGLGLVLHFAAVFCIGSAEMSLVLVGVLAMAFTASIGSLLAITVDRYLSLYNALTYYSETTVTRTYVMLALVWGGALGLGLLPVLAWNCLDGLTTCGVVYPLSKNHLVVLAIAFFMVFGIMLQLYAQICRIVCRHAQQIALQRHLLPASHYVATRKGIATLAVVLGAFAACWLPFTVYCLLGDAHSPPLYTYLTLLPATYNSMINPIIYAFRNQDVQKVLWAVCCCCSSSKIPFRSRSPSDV
As to the kind of experiment: GPR3 antagonist functional cAMP assay (LANCE Ultra cAMP TR-FRET, CHO cells stably expressing GPR3). The format is cell-based. To be noted: procedure as described in Example 24. The gist of the method:
as §1
On the technique in general: Changes in cAMP serve as a functional read-out for many G protein-coupled receptors.

T1 sequence (P46095 whole entry): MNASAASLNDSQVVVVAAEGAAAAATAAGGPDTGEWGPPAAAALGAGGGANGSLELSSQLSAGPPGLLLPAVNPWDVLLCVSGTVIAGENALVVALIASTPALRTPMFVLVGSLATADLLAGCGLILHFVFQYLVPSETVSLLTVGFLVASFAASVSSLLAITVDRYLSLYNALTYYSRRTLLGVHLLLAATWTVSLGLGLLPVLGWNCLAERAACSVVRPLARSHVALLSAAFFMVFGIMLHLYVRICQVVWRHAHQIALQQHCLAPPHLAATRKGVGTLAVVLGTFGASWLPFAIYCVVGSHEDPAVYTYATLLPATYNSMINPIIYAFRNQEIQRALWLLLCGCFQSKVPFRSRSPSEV

The term IC50 denotes the midpoint of a concentration-inhibition curve. In the case of `CC(=O)N1CCc2nc(N3CCC(Oc4ccc(F)cc4F)CC3)c(-c3cnn(CCF)c3)nc2C1` [Compound 16, 1-{2-[4-(2,4-difluorophenoxy)piperidin-1-yl]-3-[1-(2-fluoroethyl)-1H-pyrazol-4-yl]-5H,6H,7H,8H-pyrido[3,4-b]pyrazin-6-yl}ethan-1-one], the IC50 is 0.1 to 1 µM at GPR6 and 1 to 30 µM against GPR3.
The corresponding values for `CC(=O)N1CCc2nc(N3CCC(Oc4ccc(F)cc4F)CC3)c(-c3cnc4n3CCN(C(C)=O)C4)nc2C1` [Compound 17, 1-(3-(6-acetyl-2-(4-(2,4-difluorophenoxy)piperidin-1-yl)-5,6,7,8-tetrahydropyrido[3,4-b]pyrazin-3-yl)-5,6-dihydroimidazo[1,2-a]pyrazin-7(8H)-yl)ethan-1-one] are 1 to 30 µM and 1 to 30 µM.
`CC(=O)N1CCc2nc(N3CCC(Oc4ccc(F)cc4F)CC3)c(-c3ncco3)nc2C1` [Compound 18, 1-{2-[4-(2,4-difluorophenoxy)piperidin-1-yl]-3-(1,3-oxazol-2-yl)-5H,6H,7H,8H-pyrido[3,4-b]pyrazin-6-yl}ethan-1-one]: the results for the IC50 against GPR6 and at GPR3 were 1 to 30 µM and 0.1 to 1 µM, respectively.
In the same order, the values of `CC(=O)N1CCc2nc(N3CCC(Oc4ccc(F)cc4F)CC3)c(-c3cnccn3)nc2C1` [Compound 19, 1-{2-[4-(2,4-difluorophenoxy)piperidin-1-yl]-3-(pyrazin-2-yl)-5H,6H,7H,8H-pyrido[3,4-b]pyrazin-6-yl}ethan-1-one] are 1 to 30 µM and 0.1 to 1 µM.
The corresponding values for `COc1cc(-c2nc3c(nc2N2CCC(Oc4ccc(F)cc4F)CC2)CCN(C(C)=O)C3)ccn1` [Compound 20, 1-{2-[4-(2,4-difluorophenoxy)piperidin-1-yl]-3-(2-methoxypyridin-4-yl)-5H,6H,7H,8H-pyrido[3,4-b]pyrazin-6-yl}ethan-1-one] are 0.1 to 1 µM and 1 to 30 µM.
For the molecule `CC(=O)N1CCc2nc(N3CCC(Oc4ccc(F)cc4F)CC3)c(-c3ccc(=O)n(C)c3)nc2C1` [Compound 21, 5-{6-acetyl-2-[4-(2,4-difluorophenoxy)piperidin-1-yl]-5H,6H,7H,8H-pyrido[3,4-b]pyrazin-3-yl}-1-methyl-1,2-dihydropyridin-2-one], the IC50 at GPR6 and against GPR3 was 1 to 30 µM each time.
Consider `CS(=O)(=O)c1ccc(CN2CCN(c3nc4ccncc4nc3-c3cn[nH]c3)CC2)c(F)c1` [Compound 22, 1-[(2-fluoro-4-methanesulfonylphenyl)methyl]-4-[3-(1H-pyrazol-4-yl)pyrido[3,4-b]pyrazin-2-yl]piperazine], for which the IC50 on GPR6 was ≥ 30 µM; on GPR3, 0.1 to 1 µM.
For the molecule `CC(=O)N1CCc2nc(N3CCC(Oc4ccc(F)cc4F)CC3)c(-c3cccc(OC(C)(C)C)n3)nc2C1` [Compound 23, 1-{3-[6-(tert-butoxy)pyridin-2-yl]-2-[4-(2,4-difluorophenoxy)piperidin-1-yl]-5H,6H,7H,8H-pyrido[3,4-b]pyrazin-6-yl}ethan-1-one], the IC50 lay within 1 to 30 µM against GPR6 and 0.1 to 1 µM against GPR3.
In the same order, the values of `CC(=O)N1CCc2nc(N3CCC(Oc4ccc(F)cc4F)CC3)c(-c3cnc4n3CCNC4)nc2C1` [Compound 24, 1-(2-(4-(2,4-difluorophenoxy)piperidin-1-yl)-3-(5,6,7,8-tetrahydroimidazo[1,2-a]pyrazin-3-yl)-7,8-dihydropyrido[3,4-b]pyrazin-6(5H)-yl)ethan-1-one] are 1 to 30 µM and 0.1 to 1 µM.
For `CNC(=O)Cn1cc(-c2nc3c(nc2N2CCC(Oc4ccc(F)cc4F)CC2)CCN(C(C)=O)C3)cn1` [Compound 25, 2-(4-{6-acetyl-2-[4-(2,4-difluorophenoxy)piperidin-1-yl]-5H,6H,7H,8H-pyrido[3,4-b]pyrazin-3-yl}-1H-pyrazol-1-yl)-N-methylacetamide], the IC50 against GPR6 and against GPR3 was 1 to 30 µM throughout.
With `Fc1ccc(OC2CC3(C2)CN(c2nc4ccncc4nc2-c2cn[nH]c2)C3)c(F)c1` [Compound 26, 2-(6-(2,4-difluorophenoxy)-2-azaspiro[3.3]heptan-2-yl)-3-(1H-pyrazol-4-yl)pyrido[3,4-b]pyrazine], the IC50 against GPR6 lay in the range of 1 to 30 µM; against GPR3, 0.1 to 1 µM.
For the molecule `N#Cc1ccc2nc(N3CCN(Cc4cc(Cl)ccc4Cl)CC3)c(-c3ncc[nH]3)nc2c1` [Compound 27, 2-{4-[(2,5-dichlorophenyl)methyl]piperazin-1-yl}-3-(1H-imidazol-2-yl)quinoxaline-6-carbonitrile], the IC50 at GPR6 lay in the range of 1 to 30 µM; against GPR3 it was 0.1 to 1 µM.
The corresponding values for `COCn1ccnc1-c1nc2ccncc2nc1N1CCN(Cc2ccc(F)cc2Cl)CC1` [Compound 28, 1-[(2-chloro-4-fluorophenyl)methyl]-4-{2-[1-(methoxymethyl)-1H-imidazol-2-yl]pyrido[3,4-b]pyrazin-3-yl}piperazine] are ≥ 30 µM and 0.1 to 1 µM.
For `COc1cccc(-c2nc3cnccc3nc2N2CCN(Cc3ccc(S(C)(=O)=O)cc3F)CC2)n1` [Compound 29, 1-[(2-fluoro-4-methanesulfonylphenyl)methyl]-4-[3-(6-methoxypyridin-2-yl)pyrido[3,4-b]pyrazin-2-yl]piperazine], the IC50 against GPR6 is 1 to 30 µM; at GPR3 it was 0.1 to 1 µM.
For `CC(=O)N1CCc2nc(N3CCC(Oc4ccc(F)cc4F)CC3)c(-c3cccc(OC4CCC4)n3)nc2C1` [Compound 30, 1-[3-(6-cyclobutoxypyridin-2-yl)-2-[4-(2,4-difluorophenoxy)piperidin-1-yl]-5H,6H,7H,8H-pyrido[3,4-b]pyrazin-6-yl]ethan-1-one], the IC50 at GPR6 and on GPR3 was 1 to 30 µM each time.
As to `CC(=O)N1CCc2nc(N3CCC(Oc4ccc(F)cc4F)CC3)c(-c3cn[nH]c3C(C)C)nc2C1` [Compound 31, 1-{2-[4-(2,4-difluorophenoxy)piperidin-1-yl]-3-[5-(propan-2-yl)-1H-pyrazol-4-yl]-5H,6H,7H,8H-pyrido[3,4-b]pyrazin-6-yl}ethan-1-one], the IC50 at GPR6 and against GPR3 was 1 to 30 µM throughout.
Turning to `CC(=O)N1CCc2nc(N3CCC(Oc4ccc(F)cc4F)CC3)c(-c3cn[nH]c3)nc2C1` [Compound 32, 1-(2-(4-(2,4-difluorophenoxy)piperidin-1-yl)-3-(1H-pyrazol-4-yl)-7,8-dihydropyrido[3,4-b]pyrazin-6(5H)-yl)ethan-1-one], the IC50 on GPR6 lay in the range of 0.1 to 1 µM; against GPR3 it was 1 to 30 µM.
Regarding `CC(=O)N1CCc2nc(N3CCC(Oc4ccc(F)cc4F)CC3)c(-c3cccc(=O)[nH]3)nc2C1` [Compound 33, 6-(6-acetyl-2-(4-(2,4-difluorophenoxy)piperidin-1-yl)-5,6,7,8-tetrahydropyrido[3,4-b]pyrazin-3-yl)pyridin-2(1H)-one], the IC50 fell in the range of 0.1 to 1 µM against GPR6 and 1 to 30 µM on GPR3.
For `CC(=O)N1CCc2nc(N3CCC(Oc4ccc(F)cc4F)CC3)c(-c3cncnc3)nc2C1` [Compound 34, 1-{2-[4-(2,4-difluorophenoxy)piperidin-1-yl]-3-(pyrimidin-5-yl)-5H,6H,7H,8H-pyrido [3,4-b]pyrazin-6-yl}ethan-1-one], the IC50 against GPR6 and against GPR3 was 1 to 30 µM each time.
On to `Fc1ccc(NC2CCN(c3nc4ccncc4nc3-c3cn[nH]c3)CC2)c(F)c1` [Compound 35, 1-(3-(1H-pyrazol-4-yl)pyrido[3,4-b]pyrazin-2-yl)-N-(2,4-difluorophenyl)piperidin-4-amine], for which the half-inhibitory concentration (IC50) against GPR6 and at GPR3 was 1 to 30 µM in each case.
Take `CC(=O)N1CCc2nc(N3CCC(Oc4ccc(F)cc4F)CC3)c(-c3cccc(=O)n3C)nc2C1` [Compound 36, 6-{6-acetyl-2-[4-(2,4-difluorophenoxy)piperidin-1-yl]-5H,6H,7H,8H-pyrido[3,4-b]pyrazin-3-yl}-1-methyl-1,2-dihydropyridin-2-one]: the IC50 against GPR6 lay in the range of 1 to 30 µM; against GPR3 it was 0.1 to 1 µM.
In the same order, the values of `CC(=O)N1CCc2nc(N3CCC(Oc4ccc(F)cc4F)CC3)c(-c3ncccn3)nc2C1` [Compound 37, 1-{2-[4-(2,4-difluorophenoxy)piperidin-1-yl]-3-(pyrimidin-2-yl)-5H,6H,7H,8H-pyrido[3,4-b]pyrazin-6-yl}ethan-1-one] are 1 to 30 µM and 0.1 to 1 µM.
The corresponding values for `COc1cncc(-c2nc3c(nc2N2CCC(Oc4ccc(F)cc4F)CC2)CCN(C(C)=O)C3)c1` [Compound 38, 1-{2-[4-(2,4-difluorophenoxy)piperidin-1-yl]-3-(5-methoxypyridin-3-yl)-5H,6H,7H,8H-pyrido[3,4-b]pyrazin-6-yl}ethan-1-one] are 0.1 to 1 µM and 1 to 30 µM.
The corresponding values for `CC(=O)N1CCc2nc(N3CCC(Oc4ccc(F)cc4F)CC3)c(-c3cccc(OC(C)C)n3)nc2C1` [Compound 39, 1-{2-[4-(2,4-difluorophenoxy)piperidin-1-yl]-3-[6-(propan-2-yloxy)pyridin-2-yl]-5H,6H,7H,8H-pyrido[3,4-b]pyrazin-6-yl}ethan-1-one] are 1 to 30 µM and 0.1 to 1 µM.
`CC(=O)N1CCc2nc(N3CCC(Oc4ccc(F)cc4F)CC3)c(-c3ncc[nH]3)nc2C1` [Compound 40, 1-(2-(4-(2,4-difluorophenoxy)piperidin-1-yl)-3-(1H-imidazol-2-yl)-7,8-dihydropyrido[3,4-b]pyrazin-6(5H)-yl)ethan-1-one]: the IC50 on GPR6 and at GPR3 was 1 to 30 µM in each case.
Consider `Fc1ccc(OC2CCN(c3nc4ccncc4nc3-c3ncc[nH]3)CC2)c(F)c1` [Compound 41, 4-(2,4-difluorophenoxy)-1-[3-(1H-imidazol-2-yl)pyrido[3,4-b]pyrazin-2-yl]piperidine], for which the IC50 at GPR6 and against GPR3 was 1 to 30 µM each time.
Take `Fc1ccc(Cl)cc1CN1CCN(c2nc3cnccc3nc2-c2ncc[nH]2)CC1` [Compound 42]: the IC50 against GPR6 was 1 to 30 µM; at GPR3, 0.1 to 1 µM.
